Reference: US7425573B2, “Use of annellated pyrrole compounds in the treatment of articular cartilage or subchondral bone degeneration” (priority 2001, dated 2008)

Legend:
[1] = test system: experimental dog model of OA; settings: cited from earlier work
[2] = Plasma ML3000 level after immediate release dosage forms; assay type: in vivo; settings: immediate release dosage form, for 8 hours
[3] = test system: experimental osteoarthritis (OA) dog model; test: Experimental OA dog model (ACL section), macroscopic grading of the knee; assay type: in vivo; settings: for reduction of size of cartilage lesions on tibial plateaus vs placebo: P<0.01; for width of osteophytes: mean±SEM, placebo 4.50±0.66, not significant; for osteophytes present (share of condyles): placebo 93%
Procedure: (§1) Twenty-one adult crossbred dogs (2-3 years old), weighing 20-25 kg each, were used in this study. Surgical sectioning of the anterior cruciate ligament (ACL) of the right knee through a stab wound was performed on all dogs as previously described (5,6). Prior to surgery, the animals were anesthetized intravenously with pentobarbital sodium (25 mg/kg) and intubated. Following surgery, the dogs were kept at a housing farm where they were free to exercise in a large pen.
(§2) The dogs were randomly separated into 3 treatment groups. Group 1 (n=7 dogs) was made up of dogs that received placebo (encapsulated methylcellulose) treatment (OA dogs); Groups 2 and 3 (n=7 dogs per group) received encapsulated ML3000 twice daily for 8 weeks at total doses of 2.5 and 5 mg/kg, respectively, beginning the day following surgery. The medication was administered 7 days/week throughout the duration of the study. All dogs were killed 8 weeks after surgery.
Immediately after killing, the right knee of each dog was dissected, placed on ice, and the synovial fluid aspirated. Each knee was examined by 2 independent, blinded observers (DVJ, JCF) for gross morphologic changes including the presence of osteophyte formation and cartilage lesions as previously described (5,6). The degree of osteophyte formation was graded by measuring the maximal width (mm) of the spur of each femoral condyle. The cartilage changes on the medial and lateral femoral condyles and tibial plateaus were graded separately under a dissecting microscope (Stereozoom; Bausch & Lomb, Rochester, N.Y.).
The area of the articular surface changes was measured and expressed in mm^2. The depth of erosion was graded on a scale of 0-4, as follows: 0=surface appears normal, 1=minimal fibrillation or a slight yellowish discoloration of the surface, 2=erosion extended into superficial or middle layers, 3=erosion extended into deep,layers, and 4=erosion extended to the subchondral bone.

[4] = test system: experimental osteoarthritis (OA) dog model; test: Experimental OA dog model, histologic grading of cartilage and synovial membrane; assay type: in vivo
Procedure: as §1, §2
Histologic evaluation was performed on sagittal sections of cartilage from the lesioned areas of each femoral condyle and tibial plateau as described (7,8). Specimens were dissected, fixed in TissuFix #2 (Laboratoires Gilles Chaput, Montréal, Québec, Canada), and embedded in paraffin for histologic evaluation. Serial sections (5 μm) were stained with Safranin O. The severity of the OA lesions was graded on scale of 0-14, by 2 independent observers (DJ, JF), using the histologic/histochemical scale of Mankin et al (12). This scale evaluates the severity of OA lesions based on the loss of staining with Safranin O (scale 0-4), cellular changes (scale 0-3), invasion of the tidemark by blood vessels (scale 0-1), and structural changes (scale 0-6, where 0=normal cartilage structure and 6=erosion of the cartilage down to the subchondral bone). This scoring system was based on the most severe histologic changes within each cartilage section.
Representative specimens of synovial membrane from the gutters of the medial and lateral knee compartments were also dissected from underlying tissue. The specimens were fixed in TissuFix #2, embedded in paraffin, sectioned (5 μm), and stained with hematoxylin and eosin. Two synovial membrane specimens from each compartment were examined, serial selections were made throughout the specimens, and each one scored separately. The highest score from each specimen was recorded. The average was calculated and considered as a unit for the whole knee. The severity of synovitis was graded on a scale of 0-10 (13) by 2 independent observers (DVJ, JCF) adding the scores for 3 histologic criteria: synovial lining cell hyperplasia (scale 0-2), villous hyperplasia (scale 0-3), and degree of cellular infiltration by mononuclear and polymorphonuclear cells (scale 0-5).

PGE2 = PGE2 measurement in synovial fluid of OA dogs (EIA); assay type: in vivo, dog; settings: 2.5 and 5 mg/kg/day; placebo 652.8±149.9 pg/ml
Procedure: as §2
Synovial fluid taken at the time of sacrifice was centrifuged (14000 g, 15 minutes, 4° C.), and supernatants used for PGE2 determination. The level of PGE2 was determined using a specific enzyme immunoassay (EIA) (Cayman Chemical, Ann Arbor, Mich.).

LTB4 = LTB4 production in synovial explant culture of OA dogs (LPS, EIA); assay type: in vivo, dog; settings: both treated groups, explants with 1 μg/ml LPS; placebo 2.48±0.69 pg/mg tissue
Procedure: as §2
Representative specimens of synovial membrane from all dogs were aseptically dissected from underlying tissue. The specimens were rinsed several times in Dulbecco's Modified Eagle's Medium (DMEM; Gibco-BRL Life Technologies, Burlington, Ontario, Canada), and 150 mg of tissue incubated (duplicate) for 48 hours at 37° C. in a humidified atmosphere of 5% CO2/95% air in DMEM medium in the presence of 1 μg/ml lipopolysaccharide (LPS; Sigma-Aldrich Canada, Oakville, Ontario, Canada). The LTB4 was extracted from cultured synovium explants as follows: membranes were homogenized in EIA buffer (1 M phosphate, pH 7.4, containing 1% BSA, 4 M NaCl, 10 mM EDTA and 0.1% sodium azide) and centrifuged (30000 g, 20 minutes, 4° C.). Supernatants were collected and the levels of LTB4 determined using EIA (Cayman Chemical).

collagenase-1 (MMP-1) = test: Immunohistochemistry, chondrocyte cell score for collagenase-1 in cartilage of OA dogs; assay type: in vivo, dog; settings: condyles and plateaus, both doses, slightly more pronounced at highest dosage
Procedure: as §2
Cartilage and synovial membrane specimens were processed for immunohistochemical analysis as previously described (7,14). Briefly, specimens were fixed in 4% neutral buffered formalin for 24 hours, then embedded in paraffin. […]
Cartilage. Quantification of the different antigens in cartilage was done using a published method (7,14). […] For each arthritic specimen, it was ensured prior to evaluation that an intact cartilage surface could be detected and used as a marker for validation of morphometric analysis. The total number of chondrocytes and the number of chondrocytes staining positive for the specific antigen were determined. The final results were expressed as the percentage of chondrocytes staining positive for the antigen (cell score) with the maximum score being 100%. […]

interleukin-1β (IL-1β) = test: Immunohistochemistry, synovial membrane cell score for IL-1β in OA dogs; assay type: in vivo, dog; settings: 2.5 and 5 mg/kg/day
Procedure: as §2
Cartilage and synovial membrane specimens were processed for immunohistochemical analysis as previously described (7,14). Briefly, specimens were fixed in 4% neutral buffered formalin for 24 hours, then embedded in paraffin. Sections (5 μm) of paraffin-embedded specimens were placed on Superfrost Plus slides (Fisher Scientific, Nepean, Ontario, Canada), deparaffinized in toluene, dehydrated in a graded series of ethanol, and preincubated with chondroitinase ABC (0.25 units/ml) in phosphate buffered saline (PBS; Sigma-Aldrich Canada) for 60 minutes at 37° C. […]
Synovial membrane. For synovial membrane analysis, a cell score of the different specimens was determined for each section using our published method (8). […] The percentage of cells staining positive for the specific antigen was evaluated in each field as described above for cartilage. […]

[5] = Clinical observation of dogs during 8 weeks of treatment; assay type: in vivo; settings: all dogs of the 3 experimental groups
Procedure: as §1, §2

[6] = test system: carrageenan-induced paw edema; settings: rat; cited from earlier work
rat adjuvant arthritis = settings: cited from earlier work
knee OA patients = settings: X-ray criteria, 5-year period; cited from earlier work

CC(=O)Oc1ccccc1C(=O)O [ASA, acetylsalicylic acid]
effect on progression of experimental OA [1]: ineffective (10) or even demonstrated to accelerate cartilage damage

CC(C(=O)O)c1ccc2c(c1)[nH]c1ccc(Cl)cc12 (centres unmarked) [Carprofen]
effect on progression of experimental OA [1]: exhibit anti-OA effects

CC1(C)Cc2c(-c3ccccc3)c(-c3ccc(Cl)cc3)c(CC(=O)O)n2C1 [ML3000, [2,2-dimethyl-6-(4-chlorophenyl)-7-phenyl-2,3-dihydro-1H-pyrrolizine-5yl]-acetic acid]
plasma ML3000 concentration maintained ([2]; dose 2.5 mg/kg): above 100 ng/mL | plasma ML3000 concentration maintained ([2]; dose 5 mg/kg): > 200 ng/mL | reduction of size of cartilage lesions on tibial plateaus vs placebo ([3]; 2.5 mg/kg/day, 8 weeks): 45% | reduction of size of cartilage lesions on femoral condyles vs placebo ([3]; 2.5 mg/kg/day, 8 weeks, P<0.05): 39% | width of osteophytes ([3]; 2.5 mg/kg/day, 8 weeks): 3.57±0.56 mm | osteophytes present (share of condyles) ([3]; 2.5 mg/kg/day, 8 weeks): 93% | reduction of size of cartilage lesions on tibial plateaus vs placebo ([3]; 5 mg/kg/day, 8 weeks): 54% | reduction of size of cartilage lesions on femoral condyles vs placebo ([3]; 5 mg/kg/day, 8 weeks, P<0.04): 61% | width of osteophytes ([3]; 5 mg/kg/day, 8 weeks): 3.86±0.66 mm | osteophytes present (share of condyles) ([3]; 5 mg/kg/day, 8 weeks): 86% | macroscopic appearance of synovial membrane vs placebo ([3]; ML3000-treated dogs, 8 weeks): thinner, contained fewer blood vessels, and the discoloration was less intense | grade of cartilage lesions on tibial plateaus ([3]; both doses (2.5 and 5 mg/kg/day), scale 0-4): significantly reduced | grade of cartilage lesions on femoral condyles ([3]; treated dogs (2.5 and 5 mg/kg/day), scale 0-4): did not reach statistical significance | villous hyperplasia of synovial membrane ([4]; 5 mg/kg/day): significant reduction | histologic severity of cartilage lesions on condyles vs placebo, significance ([4]; 5 mg/kg/day, Mankin scale 0-14): statistical significance was obtained | histologic severity of cartilage lesions on tibial plateaus ([4]; 2.5 and 5 mg/kg/day (P<0.002 and P<0.02), Mankin scale): statistically significant decrease | histologic severity of cartilage lesions on condyles vs placebo ([4]; ML3000-treated dogs, Mankin scale 0-14): less severe | level of PGE2 in synovial fluid (PGE2): markedly decreased | LTB4 levels in cultured synovium (LTB4): statistically significant reduction | chondrocyte cell score for collagenase-1 (collagenase-1 (MMP-1)): significant decrease | number of synovial lining cells staining positive for IL-1β (interleukin-1β (IL-1β)): dose-dependent and significant decrease | body weight during the study period [5]: no change in the body weight | anti-inflammatory action [6]: potent anti-inflammatory action | anti-inflammatory action (rat adjuvant arthritis): potent anti-inflammatory action

O=C(O)Cc1ccccc1Nc1c(Cl)cccc1Cl [diclofenac]
effect on progression of experimental OA [1]: ineffective (10) or even demonstrated to accelerate cartilage damage

COc1ccc2c(c1)c(CC(=O)O)c(C)n2C(=O)c1ccc(Cl)cc1 [indomethacin]
effect on progression of cartilage damage (knee OA patients): even accelerated its progression

CC(C(=O)O)c1ccc(C(=O)c2ccccc2)s1 (centres unmarked) [tiaprofenic acid]
effect on progression of cartilage damage (knee OA patients): could not retard the progression of cartilage damage
